Reference: patent US12473305B2, “Pyrazole boronic acid compound, pharmaceutical composition containing same, and uses thereof” (BEIJING SONGRUN PHARMACEUTICAL TECHNOLOGY CO., LTD., priority 2020, dated 2025)
Blank lines part the entries; values can stand above or below the compound they belong to.

Tests used:
[1] = Maximum tolerated dose in mice; assay type: in vivo; conditions: for body weight (M ± S.E.): in g (unit assumed)
Experimental: Healthy non-tumor bearing female NOD/SCID mice (purchased from Sipeifu Biotechnology Co., Ltd.) were selected for the Maximum Tolerated Dose (MTD) test. Compound 39 was administered to NOD/SCID mice directly through a single tail vein injection, and the vehicle (0.3 mL DMSO, 0.27 mL Tween-80, 2.43 mL normal saline) was used as the control group. According to the dose of compound 39, the administration group was divided into three groups: low-dose group (10 mg/kg), medium-dose group (20 mg/kg), and high-dose group (30 mg/kg), with seven mice in each group.

[2] = Pharmacokinetic test in rats (IV and PO); assay type: in vivo, male SD rats
Experimental: This experiment includes the PO group and IV group, with three animals in each group. For the PO group, about 0.25 mL of whole blood was collected from orbital venous plexus before administration, and 15 min, 30 min, 1 h, 2 h, 4 h, 7 h and 24 h after administration, and for the IV group, about 0.25 mL of whole blood was collected from orbital venous plexus before administration, and 5 min, 15 min, 30 min, 1 h, 2 h, 4 h, 7 h and 24 h after administration, which were placed in heparin anticoagulant tube. After the blood collection, the blood collection tubes containing anticoagulant agent was inverted several times to fully mix, and placed on wet ice before centrifugation. Within 60 minutes after blood collection, it was centrifuged at 8000 rpm under 2 to 8° C. for 10 minutes to separate red blood cells and obtain plasma samples. The plasma sample was transferred to a cryogenic tube and stored at −75±15° C. until analysis. 50 μL of the plasma sample was taken and added with 5 μL of acetonitrile:water (1:1, v/v), and added with 200 μL of 0.1% formic acid-acetonitrile, centrifuged (12000 rpm, 15 min); the supernatant was diluted in 1:1 with ultrapure water. The plasma drug concentration was analyzed by using LC-MS/MS method. Microsoft EXCEL was used to statistically describe the experimental data with mean, deviation % and standard deviation (SD). The pharmacokinetic parameters were calculated with WinNonlin 8.1 software. The following pharmacokinetic parameters were calculated: CL (clearance), Vd (apparent volume of distribution), T1/2 (elimination half-life time), Cmax (peak concentration), Tmax (peak time), AUC (area under the blood concentration-time curve), and F % (bioavailability).

PC3 = test: MTT antitumor spectrum, PC3; assay type: cell-based; conditions: Homo sapiens, PC-3, 72 h
Experimental: (§1) The activity of compound 30 was evaluated by MTT method against seven tumor cell models, A549, A375, HCT116, MDA-MB-231, HepG2, PC3 and MCF-7. All cells used in the study were prepared at a concentration of 3.5×10^3 cells/mL, and each […] cell suspension was inoculated on a 96-well microtiter plate for 24 hours (37° C., 5% CO2). Then different concentrations of compound 30 were added, incubated for 72 hours; and for the control group, equivalent concentrations of DMSO (final concentration 0.5%) were added. The number of viable cells was measured by MTT (3-(4,5-dimethylthiazol-2-yl)-diphenyl tetrazolium bromide) method, and the OD value at 492/620 nm was recorded. The IC50 value was calculated by Prism-Graphpad software based on the results of triplicate experiments.

MDA-MB-231 = test: MTT antitumor spectrum, MDA-MB-231; assay type: cell-based; conditions: Homo sapiens, 72 h
Experimental: as §1

[3] = tested on: human liver cancer Bel7404; test: Antitumor activity in vivo, Bel7404 transplanted in nude mice; parameters: species or system male BALB/c athymic nude mice; conditions: for RTV (d22): iv × 5; for Animal weight (g) (After tumor removal) / Inhibition rate %: iv × 5, d22
Experimental: In the test, the Bel7404 models of human liver cancer transplanted into 6-week-old male BALB/c athymic nude mice (purchased from Shanghai Slac Laboratory Animal Co., Ltd.) with body weight of 18-20 g were used to study the anti-tumor effect of compound 30. The dose of compound 30 was 50 mg/kg (30H group), 25 mg/kg (30 M group) and 12.5 mg/kg (30 L group), respectively, and was injected intravenously twice a week for 5 times in total; at the same time, 5-FU was used as the control drug, which was injected intraperitoneally twice a week for 7 times in total (5 mice/group for the compound 30 administration group, 5 mice in 5 FU administration group; 8 mice were used as the mock group). The long diameter a (mm) and the vertical short diameter b (mm) of the tumor were measured twice a week with a digital electronic caliper. The tumor volume calculation formula was TV=ab^2/2; and the relative tumor volume calculation formula was RTV=Vt/Vo, wherein Vo was the tumor volume measured on the first day of administration (d1), and Vt was the tumor volume at each measurement. On the 22nd day of administration (d22), the animals were sacrificed and weighed. The tumor mass was dissected and weighed. The tumor inhibition rate (tumor inhibitory rate, %) was calculated according to the following formula: […]

MCF-7 = test: MTT antitumor spectrum, MCF-7; assay type: cell-based; conditions: Homo sapiens, MCF7, 72 h
Experimental: as §1

HepG2 = test: MTT antitumor spectrum, HepG2; assay type: cell-based; conditions: Homo sapiens, 72 h
Experimental: as §1

[4] = male, SD, rat, IV 1 mg/kg, single, plasma
[5] = male, SD, rat, PO 10 mg/kg, single, plasma

Structure (SMILES): CC(C)C[C@H](NC(=O)Cn1nc(-c2cccc(OCCN3CCN(c4ccccc4)CC3)c2)cc1-c1ccccc1)B(O)O.Cl [Compound 39, (R)-(3-methyl-1-(2-(5-phenyl-3-(3-(2-(4-phenylpiperazin-1-yl)ethoxy)phenyl)-1H-pyrazol-1-yl)acetamido)butyl)boronic acid hydrochloride]
body weight (M ± S.E.) ([1]; High-dose 30 mg/kg single tail vein injection, Day 0 (day before administration)): 24.2 ± 0.5
body weight (M ± S.E.) ([1]; High-dose 30 mg/kg single tail vein injection, Day 1): 24.0 ± 0.5
body weight (M ± S.E.) ([1]; High-dose 30 mg/kg single tail vein injection, Day 2): 22.4 ± 0.6
body weight (M ± S.E.) ([1]; High-dose 30 mg/kg single tail vein injection, Day 3): 22.5 ± 0.6
body weight (M ± S.E.) ([1]; High-dose 30 mg/kg single tail vein injection, Day 4): 22.7 ± 0.7
body weight (M ± S.E.) ([1]; High-dose 30 mg/kg single tail vein injection, Day 5): 22.9 ± 0.6
body weight (M ± S.E.) ([1]; High-dose 30 mg/kg single tail vein injection, Day 6): 22.5 ± 0.6
body weight (M ± S.E.) ([1]; High-dose 30 mg/kg single tail vein injection, Day 7): 23.1 ± 0.4
body weight (M ± S.E.) ([1]; Low-dose 10 mg/kg single tail vein injection, Day 0 (day before administration)): 24.2 ± 0.8
body weight (M ± S.E.) ([1]; Low-dose 10 mg/kg single tail vein injection, Day 1): 24.5 ± 0.8
body weight (M ± S.E.) ([1]; Low-dose 10 mg/kg single tail vein injection, Day 2): 23.3 ± 1.1
body weight (M ± S.E.) ([1]; Low-dose 10 mg/kg single tail vein injection, Day 3): 23.4 ± 1.0
body weight (M ± S.E.) ([1]; Low-dose 10 mg/kg single tail vein injection, Day 4): 23.7 ± 1.1
body weight (M ± S.E.) ([1]; Low-dose 10 mg/kg single tail vein injection, Day 5): 24.1 ± 1.0
body weight (M ± S.E.) ([1]; Low-dose 10 mg/kg single tail vein injection, Day 6): 24.4 ± 0.8
body weight (M ± S.E.) ([1]; Low-dose 10 mg/kg single tail vein injection, Day 7): 24.7 ± 0.7
body weight (M ± S.E.) ([1]; Medium-dose 20 mg/kg single tail vein injection, Day 0 (day before administration)): 24.7 ± 0.2
body weight (M ± S.E.) ([1]; Medium-dose 20 mg/kg single tail vein injection, Day 1): 24.1 ± 0.5
body weight (M ± S.E.) ([1]; Medium-dose 20 mg/kg single tail vein injection, Day 2): 22.8 ± 0.4
body weight (M ± S.E.) ([1]; Medium-dose 20 mg/kg single tail vein injection, Day 3): 22.7 ± 0.4
body weight (M ± S.E.) ([1]; Medium-dose 20 mg/kg single tail vein injection, Day 4): 22.8 ± 0.5
body weight (M ± S.E.) ([1]; Medium-dose 20 mg/kg single tail vein injection, Day 5): 23.3 ± 0.6
body weight (M ± S.E.) ([1]; Medium-dose 20 mg/kg single tail vein injection, Day 6): 23.7 ± 0.7
body weight (M ± S.E.) ([1]; Medium-dose 20 mg/kg single tail vein injection, Day 7): 24.0 ± 0.7
average body weight change of mice ([1]; doses of 30 mg/kg or less, single tail vein injection): not more than 5%
MTD at 7 days ([1]; female, NOD/SCID, mouse, in vivo, single tail vein injection, 7 days observation, read-out: dose safe to be administered (maximum tolerated dose test)): ≤ 30 mg/kg
clearance (in words) ([2]; IV 1 mg/kg): medium clearance
CL_obs ([2]; IV 1 mg/kg, single, plasma, hydrochloride, 1 mg/kg): 21.0 ± 3.4 mL/min/kg
distribution in vivo (in words) ([2]; IV 1 mg/kg, Vd higher than total liquid volume of SD rats): widely distributed in vivo
absorption (in words) ([2]; PO 10 mg/kg): rapid absorption
bioavailability ([2]; male, SD, rat, plasma, PO 10 mg/kg vs IV 1 mg/kg, read-out: F (bioavailability)): 2.42 ± 1.91%
AUC(0-inf) [2, 4]: 807 ± 123 ng·h/mL
AUC(0-t) [2, 4]: 767 ± 117 ng·h/mL
C0 [2, 4]: 846 ± 183 ng/mL
Cmax [2, 4]: 671 ± 124 ng/mL
Tmax [2, 4]: 4.98 min
Vd [2, 4]: 13.9 ± 2.8 L/kg
half-life [2, 4]: 458 ± 18 min
AUC(0-inf) [2, 5]: 191 ± 147 ng·h/mL
AUC(0-t) [2, 5]: 186 ± 147 ng·h/mL
Cmax [2, 5]: 74.8 ± 82 ng/mL
Tmax [2, 5]: 19.8 ± 8.4 min
half-life [2, 5]: 97.8 ± 21.6 min

IC50 (PC3): 820 nM
IC50 (MDA-MB-231): 940 nM
Animal weight (g) (After tumor removal) ([3]; 12.5 mg/kg): 23.11 ± 0.65 g
Animal weight (g) (After tumor removal) ([3]; 25 mg/kg): 21.91 ± 0.56 g
Animal weight (g) (After tumor removal) ([3]; 50 mg/kg): 19.95 ± 0.45 g
IC50 (MCF-7): 690 nM
IC50 (HepG2): 1080 nM
Structure (SMILES): CC(C)C[C@H](NC(=O)Cn1nc(-c2cccc(OCCN3CCOCC3)c2)cc1-c1ccccc1)B(O)O.Cl [Compound 30, (R)-(3-methyl-1-(2-(3-(3-(2-morpholinoethoxy)phenyl)-5-phenyl-1H-pyrazol-1-yl)-acetamido)butyl)boronic acid hydrochloride]
RTV (d22) ([3]; 12.5 mg/kg): 4.52 ± 1.08
Inhibition rate % ([3]; 12.5 mg/kg): 24.89%
RTV (d22) ([3]; 25 mg/kg): 3.82 ± 0.67
Inhibition rate % ([3]; 25 mg/kg): 36.55%
RTV (d22) ([3]; 50 mg/kg): 2.33 ± 0.59
Inhibition rate % ([3]; 50 mg/kg): 61.29%
